Source: patent US7144903B2, “CCR4 antagonists” (Amgen Inc., priority 2001, dated 2006)

Target: T1, CCR4 (Homo sapiens, UniProt P51679)
T1 construct: cells expressing CCR4 (e.g., CEM cells, available from the ATCC); host or cells: CEM cells
T1 sequence (P51679 1-360): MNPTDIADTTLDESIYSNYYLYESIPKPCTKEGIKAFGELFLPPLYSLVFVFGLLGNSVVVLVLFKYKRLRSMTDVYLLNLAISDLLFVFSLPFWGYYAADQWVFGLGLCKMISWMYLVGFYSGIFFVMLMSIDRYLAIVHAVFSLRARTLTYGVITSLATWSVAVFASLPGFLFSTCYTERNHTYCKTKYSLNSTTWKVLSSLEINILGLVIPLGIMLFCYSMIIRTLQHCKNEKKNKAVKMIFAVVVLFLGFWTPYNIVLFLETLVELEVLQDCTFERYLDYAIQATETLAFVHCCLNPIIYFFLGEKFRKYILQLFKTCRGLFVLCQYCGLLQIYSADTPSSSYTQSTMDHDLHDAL
Assay: CCR4 binding assay: inhibition of 125I-TARC binding to cells expressing CCR4 (e.g., CEM cells)
Settings: not given
Description: This example illustrates a CCR4 binding assay that can be used for evaluating the compounds of the present invention.
Detection of Radiolabelled TARC and/or MDC Binding to CCR4
^125I-labelled TARC and MDC are available from commercial sources (e.g., Amersham-Pharmacia or Perkin Elmer Life Sciences). All buffers and materials are available from commercial sources (e.g., Gibco BRL, Sigma). To measure binding of ^125I-TARC or ^125I-MDC to cells expressing CCR4 (e.g., CEM cells, available from the ATCC), the ^125I-TARC or ^125I-MDC is diluted to a concentration of approximately 200 pM in a buffered saline solution (e.g., RPMI supplemented with 0.5% bovine serum albumin), and added to an equal volume of a suspension of cells (e.g., CEM cells at 5×10^6 cells/mL). The resulting mixture is incubated for a period of time (e.g., 2 hours). The unbound ^125I-TARC or ^125I-MDC is separated from the cells by filtration, e.g., by passage through GF/B filter plate (Packard Biosciences) pre-treated with 0.3% polyethyleneimine (Sigma), using a Packard Filtermate 96 (Packard Biosciences). The amount of ^125I-TARC or ^125I-MDC retained with the cells on the filterplate is measured by adding a small amount of scintillation fluid (e.g., 50 μL of Microscint-20, obtained from Packard Biosciences), and reading scintillation on appropriate detection equipment, e.g., a Packard TopCount 383 (Packard Biosciences).
Non-specific binding of ^125I-TARC or ^125I-MDC can be estimated by measuring the amount of ^125I-TARC or ^125I-MDC retained with the cells on the filterplate when the assay is performed in the presence of a large excess of unlabelled TARC or MDC.
Inhibition of ^125I-TARC or ^125I-MDC binding to CCR4 is defined as a decrease in the retention of ^125I-TARC or ^125I-MDC to the cells on the filterplate.
The assay described above varies only moderately from standardly used procedures, e.g., Imai et al. (1997) J. Biol. Chem. 272:15036–15042, Imai et al. (1998) J. Biol. Chem. 273:1764–1768.

Row | SMILES | IC50 [µM]
1 | Clc1ccc2nc(Nc3cccc4ccccc34)sc2c1 [Compound 18] | > 1

Same assay, conditions: CCR4 antagonist activity, inhibition of 125I-TARC binding; read-out: IC50

Row | SMILES | IC50 [µM]
2 | CC(C)(C)c1csc(Nc2ccccc2N2CCOCC2)n1 [Compound 1] | < 1
3 | CC(C)(C)c1csc(Nc2cccc3ccccc23)n1 [Compound 11] | > 1
4 | CC(C)(C)Cc1csc(Nc2cccc3ccccc23)n1 [Compound 8] | > 1
5 | CC(C)(C)c1csc(Nc2cccc3ncccc23)n1 [Compound 7] | < 1
6 | Cc1c(Br)cccc1Nc1nc(C(C)(C)C)cs1 [Compound 6] | > 1
7 | CC(C)(C)c1csc(Nc2cccc3c2CCCC3)n1 [Compound 5] | > 1
8 | CCCc1sc(Nc2cccc3ccccc23)nc1C(C)(C)C [Compound 9] | > 1
9 | CC(C)(C)c1csc(NCc2ccccc2)n1 [Compound 3] | < 1
10 | Cc1cccc(Nc2nc(C(C)(C)C)cs2)c1C [Compound 2] | > 1
11 | CC(C)(C)c1csc(Nc2ccc(Cl)c3ccccc23)n1 [Compound 4] | < 1
12 | Cc1sc(Nc2cccc3ccccc23)nc1C(C)(C)C [Compound 10] | > 1

Further lines, results first:

Row | IC50 [µM] | SMILES
13 | < 1 | CC(C)CCCc1ccccc1Nc1nc(C(C)(C)C)cs1 [Compound 49]
14 | > 1 | CC(C)c1csc(Nc2cccc3ccccc23)n1 [Compound 12]
15 | > 1 | CC(C)(C)c1csc(Nc2cccnc2CCCC2CCCC2)n1 [Compound 20, (4-tert-Butyl-thiazol-2-yl)-[2-(3-cyclopentyl-propyl)-pyridin-3-yl]-amine]
16 | < 1 | Cc1cccc(Nc2nc(CN(CC(C)C)CC(C)C)co2)c1C [Compound 45, {4-[(Diisobutylamino)-methyl]-oxazol-2-yl}-(2,3-dimethyl-phenyl)-amine]
17 | > 1 | CCOC(=O)CC(C)(C)c1csc(Nc2cccc3ccccc23)n1 [Compound 13]
18 | < 1 | Cn1ccc2c(Nc3nc(C(C)(C)C)cs3)cccc21 [Compound 21, (4-tert-Butyl-thiazol-2-yl)-(1-methyl-1H-indol-4-yl)-amine]
19 | > 1 | CC(=O)c1csc(Nc2cccc3ccccc23)n1 [Compound 15, 4-Acetoyl-2-naphthylamino thiazole]
20 | < 1 | Cn1ccc2c(Nc3nc(CN(Cc4ccccc4OC(F)(F)F)CC4CCCCC4)cs3)cccc21 [Compound 24, (4-{[Cyclohexylmethyl-(2-trifluoromethoxy-benzyl)-amino]-methyl}-thiazol-2-yl)-(1-methyl-1H-indol-4-yl)-amine]
21 | < 1 | FC(F)(F)c1ccccc1CN(Cc1csc(Nc2cccc3ncccc23)n1)CC1CCCCC1 [Compound 35]
22 | < 1 | c1ccc(CN2CCc3sc(Nc4cccc5ccccc45)nc3C2)cc1 [Compound 19]
